# Assay results from patent US20080176827A1, “New Pyridine Analogues VII 543” (ASTRAZENECA AB, priority 2007, published 2008).
# Target: T1, P2Y12 receptor (Homo sapiens, UniProt Q9H244)
# T1 construct: expressed in transfected cells; host or cells: CHO cells (membranes)
# Test: Functional inhibition of 2-Me-S-ADP induced P2Y12 signalling (35S-GTPγS binding, membranes from P2Y12 transfected CHO-cells)
# Type: biochemical
# Details: EC80 agonist, CHO-cell membranes, read-out: IC50
# Method: Functional inhibition of-the P2Y12 receptor can be measured by in vitro assays using cell membranes from P2Y12 transfected CHO-cells, the methodology is indicated below. […] The reaction was allowed to proceed at 30° C. for 45 min. Samples were then transferred on to GF/B filters using a cell harvester and washed with wash buffer (50 mM Tris (pH 7.4), 5 mM MgCl2, 50 mM NaCl). Filters were then covered with scintilant and counted for the amount of ^35S-GTPγS retained by the filter. Maximum activity was that determined in the presence of the agonist and minimum activity in the absence of the agonist following subtraction of the value determined for non-specific activity. The effect of compounds at various concentrations was plotted according to the equation […]))) and IC50 estimated where A is the bottom plateau of the curve i.e. the final minimum y value B is the top of the plateau of the curve i.e. the final maximum y value C is the x value at the middle of the curve. […] Y is the original known y values. […] The reaction was allowed to proceed at 30° C. for 45 min. Samples were then transferred on to GF/B filters using a cell harvester and washed with wash buffer (50 mM Tris (pH 7.4), 5 mM MgCl2, 50 mM NaCl). Filters were then covered with scintilant and counted for the amount of ^35S-GTPγS retained by the filter. Maximum activity was that determined in the presence of the agonist and minimum activity in the absence of the agonist following subtraction of the value determined for non-specific activity. The effect of compounds at various concentrations was plotted according to the equation […]))) and IC50 estimated where A is the bottom plateau of the curve i.e. the final minimum y value B is the top of the plateau of the curve i.e. the final maximum y value C is the x value at the middle of the curve. […] Y is the original known y values.
# T1 sequence (Q9H244 whole entry): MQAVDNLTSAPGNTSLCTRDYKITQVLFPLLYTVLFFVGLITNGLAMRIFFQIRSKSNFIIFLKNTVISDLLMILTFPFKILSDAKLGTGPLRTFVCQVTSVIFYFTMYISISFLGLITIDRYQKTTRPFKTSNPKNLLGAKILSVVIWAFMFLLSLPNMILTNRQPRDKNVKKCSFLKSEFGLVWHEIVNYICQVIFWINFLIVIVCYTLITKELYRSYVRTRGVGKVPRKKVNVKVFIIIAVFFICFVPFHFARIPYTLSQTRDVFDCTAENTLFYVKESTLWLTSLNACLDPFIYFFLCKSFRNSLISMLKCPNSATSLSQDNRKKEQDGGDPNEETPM
row,Molecule,IC50
1,"CCOC(=O)c1cc(C#N)c(N2CCC(C(=O)NS(=O)(=O)Cc3ccccc3)C(C)C2)nc1C (stereo not shown) [Example 5, Ethyl 6-{4-[(benzylsulfonyl)carbamoyl]-3-methylpiperidin-1-yl}-5-cyano-2-methylnicotinate]",0.07 µM

# Same assay, conditions: EC80 agonist, CHO-cell membranes, value given in each example, read-out: GTPγS(IC50 μM)
row,Molecule,IC50
1,"CCOC(=O)c1cc(C#N)c(N2CCC(CC(=O)NS(=O)(=O)Cc3ccccc3)C2)nc1C (stereo not shown) [Example 1, Ethyl 6-(3-{2-[(benzylsulfonyl)amino]-2-oxoethyl}pyrrolidin-1-yl)-5-cyano-2-methylnicotinate]",0.143 µM
2,"CCOC(=O)c1cc(C#N)c(N2CCC(CC(=O)NS(=O)(=O)CCc3ccccc3)C2)nc1C (stereo not shown) [Example 2, Ethyl 5-cyano-2-methyl-6-[3-(2-oxo-2-{[(2-phenylethyl)sulfonyl]amino}ethyl)pyrrolidin-1-yl]nicotinate]",0.12 µM
3,"Cc1nc(N2CCC(C(=O)NS(=O)(=O)Cc3ccc(F)cc3)CC2)c(C#N)cc1C(=O)OCC(F)(F)F [Example 3, 2,2,2-Trifluoroethyl 5-cyano-6-(4-{[(4-fluorobenzyl)sulfonyl]carbamoyl}piperidin-1-yl)-2-methylnicotinate]",0.024 µM
4,"CCOC(=O)c1cc(C#N)c(N2CC(C(=O)NS(=O)(=O)Cc3cc(C)ccc3F)C2)nc1C [Example 4, Ethyl 5-cyano-6-(3-{[(2-fluoro-5-methylbenzyl)sulfonyl]carbamoyl}azetidin-1-yl)-2-methylnicotinate]",0.018 µM
5,"CCOC(=O)c1cc(C#N)c(N2CCC(C(=O)NS(=O)(=O)Cc3ccccc3)C(C)C2)nc1C (stereo not shown) [Example 5, Ethyl 6-{4-[(benzylsulfonyl)carbamoyl]-3-methylpiperidin-1-yl}-5-cyano-2-methylnicotinate]",0.067 µM
6,"CCOC(=O)c1cc(C#N)c(N2CCC(C(=O)NS(=O)(=O)Cc3ccccc3)CC2)nc1NC [Example 6, Ethyl 6-{4-[(benzylsulfonyl)carbamoyl]piperidin-1-yl}-5-cyano-2-(methylamino)nicotinate]",0.044 µM
7,"CCOC(=O)c1cc(C#N)c(N2CCC(C(=O)NS(=O)(=O)Cc3cc(C)ccc3F)CC2)nc1C [Example 7, Ethyl 5-cyano-6-(4-{[(2-fluoro-5-methylbenzyl)sulfonyl]carbamoyl}piperidin-1-yl)-2-methylnicotinate]",0.035 µM
8,"CCOC(=O)c1cc(C#N)c(N2CCC(C(=O)NS(=O)(=O)Cc3cccc(OC)c3)CC2)nc1C [Example 8, Ethyl 5-cyano-6-(4-{[(3-methoxybenzyl)sulfonyl]carbamoyl}piperidin-1-yl)-2-methylnicotinate]",0.074 µM
9,"CCOC(=O)c1cc(C#N)c(N2CC(C(=O)NS(=O)(=O)Cc3c(F)cccc3F)C2)nc1CC [Example 9, Ethyl 5-cyano-6-(3-{[(2,6-difluorobenzyl)sulfonyl]carbamoyl}azetidin-1-yl)-2-ethylnicotinate]",0.046 µM
10,"CCOC(=O)c1cc(C#N)c(N2CC(C(=O)NS(=O)(=O)Cc3ccc(F)c(C)c3)C2)nc1CC [Example 10, Ethyl 5-cyano-2-ethyl-6-(3-{[(4-fluoro-3-methylbenzyl)sulfonyl]carbamoyl}azetidin-1-yl)nicotinate]",0.064 µM
11,"CCOC(=O)c1cc(C#N)c(N2CC(C(=O)NS(=O)(=O)Cc3ccc(F)cc3Cl)C2)nc1CC [Example 11, Ethyl 6-(3-{[(2-chloro-4-fluorobenzyl)sulfonyl]carbamoyl}azetidin-1-yl)-5-cyano-2-ethylnicotinate]",0.036 µM
12,"CCOC(=O)c1cc(C#N)c(N2CCC(C(=O)NS(=O)(=O)Cc3cc(F)ccc3C)CC2)nc1C [Example 12, Ethyl 5-cyano-6-(4-{[(5-fluoro-2-methylbenzyl)sulfonyl]carbamoyl}piperidin-1-yl)-2-methylnicotinate]",0.49 µM
13,"CCOC(=O)c1cc(C#N)c(N2CCC(C(=O)NS(=O)(=O)Cc3c(F)ccc(F)c3F)CC2)nc1C [Example 13, ethyl 5-cyano-2-methyl-6-(4-{[(2,3,6-trifluorobenzyl)sulfonyl]carbamoyl}piperidin-1-yl)nicotinate]",0.071 µM
14,"CCOC(=O)c1cc(C#N)c(N2CCC(C(=O)NS(=O)(=O)Cc3ccc(F)cc3F)CC2)nc1C [Example 14, Ethyl 5-cyano-6-(4-{[(2,4-difluorobenzyl)sulfonyl]carbamoyl}piperidin-1-yl)-2-methylnicotinate]",0.016 µM
15,"CCOC(=O)c1cc(C#N)c(N2CCC(C(=O)NS(=O)(=O)Cc3c(F)cccc3F)CC2)nc1CC [Example 15, Ethyl 5-cyano-6-(4-{[(2,6-difluorobenzyl)sulfonyl]carbamoyl}piperidin-1-yl)-2-ethylnicotinate]",0.048 µM
16,"CCOC(=O)c1cc(C#N)c(N2CCC(C(=O)NS(=O)(=O)Cc3ccc(F)cc3Cl)CC2)nc1CC [Example 16, Ethyl 6-(4-{[(2-chloro-4-fluorobenzyl)sulfonyl]carbamoyl}piperidin-1-yl)-5-cyano-2-ethylnicotinate]",0.211 µM
17,"CCOC(=O)c1cc(C#N)c(N2CCC(C(=O)NS(=O)(=O)Cc3c(F)ccc(F)c3F)CC2)nc1CC [Example 17, Ethyl 5-cyano-2-ethyl-6-(4-{[(2,3,6-trifluorobenzyl)sulfonyl]carbamoyl}piperidin-1-yl)nicotinate]",0.097 µM
18,"CCOC(=O)c1cc(C#N)c(N2CCC(C(=O)NS(=O)(=O)Cc3ccc(F)cc3F)CC2)nc1CC [Example 18, Ethyl 5-cyano-6-(4-{[(2,4-difluorobenzyl)sulfonyl]carbamoyl}piperidin-1-yl)-2-ethylnicotinate]",0.02 µM
19,"CCOC(=O)c1cc(C#N)c(N2CC(C(=O)NS(=O)(=O)Cc3ccc(F)cc3F)C2)nc1C [Example 20, Ethyl 5-cyano-6-(3-{[(2,4-difluorobenzyl)sulfonyl]carbamoyl}azetidin-1-yl)-2-methylnicotinate]",0.035 µM
20,"CCOC(=O)c1cc(C#N)c(N2CC(C(=O)NS(=O)(=O)Cc3ccc(F)cc3F)C2)nc1CC [Example 21, Ethyl 5-cyano-6-(3-{[(2,4-difluorobenzyl)sulfonyl]carbamoyl}azetidin-1-yl)-2-ethylnicotinate]",0.03 µM
21,"CCOC(=O)c1cc(C#N)c(N2CC(C(=O)NS(=O)(=O)Cc3ccc(F)cc3)C2)nc1CC [Example 22, Ethyl 5-cyano-2-ethyl-6-(3-{[(4-fluorobenzyl)sulfonyl]carbamoyl}azetidin-1-yl)nicotinate]",0.041 µM
22,"CCOC(=O)c1cc(C#N)c(N2CC(C(=O)NS(=O)(=O)Cc3ccc(Cl)cc3)C2)nc1CC [Example 23, Ethyl 6-(3-{[(4-chlorobenzyl)sulfonyl]carbamoyl}azetidin-1-yl)-5-cyano-2-ethylnicotinate]",0.022 µM
23,"CCOC(=O)c1cc(C#N)c(N2CCC(C(=O)NS(=O)(=O)Cc3ccc(F)cc3)CC2)nc1CC [Example 24, Ethyl 5-cyano-2-ethyl-6-(4-{[(4-fluorobenzyl)sulfonyl]carbamoyl}piperidin-1-yl)nicotinate]",0.036 µM
24,"CCOC(=O)c1cc(C#N)c(N2CCC(C(=O)NS(=O)(=O)Cc3ccc(Cl)cc3)CC2)nc1CC [Example 25, Ethyl 6-(4-{[(4-chlorobenzyl)sulfonyl]carbamoyl}piperidin-1-yl)-5-cyano-2-ethylnicotinate]",0.04 µM
25,"CCOC(=O)c1cc(C#N)c(N2CC(C(=O)NS(=O)(=O)Cc3ccccc3F)C2)nc1C [Example 26, Ethyl 5-cyano-6-(3-{[(2-fluorobenzyl)sulfonyl]carbamoyl}azetidin-1-yl)-2-methylnicotinate]",0.035 µM
26,"CCOC(=O)c1cc(C#N)c(N2CCC(C(=O)NS(=O)(=O)Cc3ccccc3F)CC2)nc1C [Example 27, Ethyl 5-cyano-6-(4-{[(2-fluorobenzyl)sulfonyl]carbamoyl}piperidin-1-yl)-2-methylnicotinate]",0.026 µM
27,"CCOC(=O)c1cc(C#N)c(N2CCC(C(=O)NS(=O)(=O)Cc3ccccc3)C(CCC(=O)OCc3ccccc3)C2)nc1C (stereo not shown) [Example 28, Ethyl 6-{3-[3-(benzyloxy)-3-oxopropyl]-4-[(benzylsulfonyl)carbamoyl]piperidin-1-yl}-5-cyano-2-methylnicotinate]",0.442 µM
28,"CCOC(=O)c1cc(C#N)c(N2CCC(C(=O)NS(=O)(=O)Cc3ccc(F)cc3F)C(CCC(=O)OCc3ccccc3)C2)nc1C (stereo not shown) [Example 29, Ethyl 6-(3-[3-(benzyloxy)-3-oxopropyl]-4-{[(2,4-difluorobenzyl)sulfonyl]carbamoyl}piperidin-1-yl)-5-cyano-2-methylnicotinate]",0.382 µM
29,"CCOC(=O)c1cc(C#N)c(N2CCC(C(=O)NS(=O)(=O)Cc3ccccc3)C(CCC(=O)O)C2)nc1C (stereo not shown) [Example 30, 3-{4-[(Benzylsulfonyl)carbamoyl]-1-[3-cyano-5-(ethoxycarbonyl)-6-methylpyridin-2-yl]piperidin-3-yl}propanoic Acid]",0.057 µM
30,Ethyl 6-(4-{[(4-chloro-2-fluorobenzyl)sulfonyl]carbamoyl}piperidin-1-yl)-5-cyano-2-ethylnicotinate [Example 19],0.01 µM
